Source: PMC11167047 (Cell Death Discovery, 2024)

Experiments:
ITK = biological target: T1, ITK (Homo sapiens, UniProt Q08881); assay: kinome screen (33PanQinase); type: biochemical
T1 construct: purchased Reaction Biology Europe GmbH (formerly ProQinase)
T1 sequence (Q08881 1-620): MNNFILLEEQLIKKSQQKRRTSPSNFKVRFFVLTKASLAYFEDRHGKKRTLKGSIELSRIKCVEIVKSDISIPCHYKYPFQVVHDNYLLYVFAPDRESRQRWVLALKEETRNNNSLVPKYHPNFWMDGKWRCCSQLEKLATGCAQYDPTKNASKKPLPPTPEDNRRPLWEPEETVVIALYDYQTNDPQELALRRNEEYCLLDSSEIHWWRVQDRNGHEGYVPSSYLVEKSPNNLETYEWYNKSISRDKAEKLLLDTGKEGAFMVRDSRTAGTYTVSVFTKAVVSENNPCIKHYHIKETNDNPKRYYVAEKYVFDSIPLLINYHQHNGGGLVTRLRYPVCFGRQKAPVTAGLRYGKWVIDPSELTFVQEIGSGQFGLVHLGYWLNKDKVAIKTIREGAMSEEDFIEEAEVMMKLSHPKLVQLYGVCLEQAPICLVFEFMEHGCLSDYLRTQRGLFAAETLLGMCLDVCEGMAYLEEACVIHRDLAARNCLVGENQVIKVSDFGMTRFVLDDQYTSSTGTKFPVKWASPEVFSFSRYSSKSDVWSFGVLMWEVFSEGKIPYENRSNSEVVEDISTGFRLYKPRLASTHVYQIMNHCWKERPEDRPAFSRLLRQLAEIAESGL
Experimental: (§1) The Kinome Screening was performed by Reaction Biology Europe GmbH (http://reactionbiology.com; Freiburg i. Br., Germany).

MAP3K1 = biological target: T2, MAP3K1 (Homo sapiens, UniProt Q13233); assay: kinome screen (33PanQinase); type: biochemical
T2 construct: purchased Reaction Biology Europe GmbH (formerly ProQinase)
Experimental: as §1

MAP3K10 = biological target: T3, MAP3K10 (Homo sapiens, UniProt Q02779); assay: kinome screen (33PanQinase); type: biochemical
T3 construct: purchased Reaction Biology Europe GmbH (formerly ProQinase)
Experimental: as §1

PKCμ = biological target: T4, PKCμ (Homo sapiens, UniProt Q15139); assay: kinome screen (33PanQinase); type: biochemical
T4 construct: purchased Reaction Biology Europe GmbH (formerly ProQinase)
T4 sequence (Q15139 1-912): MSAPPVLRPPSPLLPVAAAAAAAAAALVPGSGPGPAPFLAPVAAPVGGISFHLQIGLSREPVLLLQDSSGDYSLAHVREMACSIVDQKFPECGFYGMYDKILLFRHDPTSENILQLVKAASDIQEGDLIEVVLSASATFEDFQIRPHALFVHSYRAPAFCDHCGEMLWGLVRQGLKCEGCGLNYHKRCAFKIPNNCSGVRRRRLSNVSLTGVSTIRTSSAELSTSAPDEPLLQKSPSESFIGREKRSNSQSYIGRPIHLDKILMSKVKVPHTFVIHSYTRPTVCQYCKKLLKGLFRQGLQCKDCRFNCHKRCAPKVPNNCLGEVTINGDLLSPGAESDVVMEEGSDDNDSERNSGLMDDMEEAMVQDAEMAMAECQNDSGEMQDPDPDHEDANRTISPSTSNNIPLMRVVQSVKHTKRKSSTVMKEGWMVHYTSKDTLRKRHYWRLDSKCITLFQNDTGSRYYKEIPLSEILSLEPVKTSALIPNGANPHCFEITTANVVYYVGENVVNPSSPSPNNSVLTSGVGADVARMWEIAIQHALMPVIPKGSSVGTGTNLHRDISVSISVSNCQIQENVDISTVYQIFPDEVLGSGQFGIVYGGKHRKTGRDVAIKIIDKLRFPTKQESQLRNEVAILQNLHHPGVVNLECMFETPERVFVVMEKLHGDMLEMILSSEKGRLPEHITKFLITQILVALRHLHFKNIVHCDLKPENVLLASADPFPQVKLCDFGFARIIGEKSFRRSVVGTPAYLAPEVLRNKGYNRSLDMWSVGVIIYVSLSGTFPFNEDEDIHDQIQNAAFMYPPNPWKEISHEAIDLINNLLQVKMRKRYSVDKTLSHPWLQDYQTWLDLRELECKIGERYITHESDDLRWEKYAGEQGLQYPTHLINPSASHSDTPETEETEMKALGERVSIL
Experimental: as §1

PLK1 = biological target: T5, PLK1 (Homo sapiens, UniProt P53350); assay: kinome screen (33PanQinase); type: biochemical
T5 construct: purchased Reaction Biology Europe GmbH (formerly ProQinase)
Experimental: as §1

SRMS = biological target: T6, SRMS (Homo sapiens, UniProt Q9H3Y6); assay: kinome screen (33PanQinase); type: biochemical
T6 construct: purchased Reaction Biology Europe GmbH (formerly ProQinase)
Experimental: as §1

TGFBR1 = biological target: T7, TGFBR1 (Homo sapiens, UniProt P36897); assay: kinome screen (33PanQinase); type: biochemical
T7 construct: purchased Reaction Biology Europe GmbH (formerly ProQinase)
T7 sequence (P36897 34-503): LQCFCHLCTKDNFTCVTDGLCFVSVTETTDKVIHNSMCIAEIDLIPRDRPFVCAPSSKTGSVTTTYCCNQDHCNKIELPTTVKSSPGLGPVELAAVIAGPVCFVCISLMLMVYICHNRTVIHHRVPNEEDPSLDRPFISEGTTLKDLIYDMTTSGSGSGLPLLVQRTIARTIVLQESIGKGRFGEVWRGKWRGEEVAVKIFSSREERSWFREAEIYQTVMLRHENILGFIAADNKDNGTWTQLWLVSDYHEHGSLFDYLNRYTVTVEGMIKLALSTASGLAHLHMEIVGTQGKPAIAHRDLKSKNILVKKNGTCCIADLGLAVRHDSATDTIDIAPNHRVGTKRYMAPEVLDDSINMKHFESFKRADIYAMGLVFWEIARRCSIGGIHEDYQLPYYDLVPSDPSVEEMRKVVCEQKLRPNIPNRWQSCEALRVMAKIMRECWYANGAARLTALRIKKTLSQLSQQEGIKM
Experimental: as §1

TSK2 = biological target: T8, TSK2 (Homo sapiens, UniProt Q96PF2); assay: kinome screen (33PanQinase); type: biochemical
T8 construct: purchased Reaction Biology Europe GmbH (formerly ProQinase)
T8 sequence (Q96PF2 1-358): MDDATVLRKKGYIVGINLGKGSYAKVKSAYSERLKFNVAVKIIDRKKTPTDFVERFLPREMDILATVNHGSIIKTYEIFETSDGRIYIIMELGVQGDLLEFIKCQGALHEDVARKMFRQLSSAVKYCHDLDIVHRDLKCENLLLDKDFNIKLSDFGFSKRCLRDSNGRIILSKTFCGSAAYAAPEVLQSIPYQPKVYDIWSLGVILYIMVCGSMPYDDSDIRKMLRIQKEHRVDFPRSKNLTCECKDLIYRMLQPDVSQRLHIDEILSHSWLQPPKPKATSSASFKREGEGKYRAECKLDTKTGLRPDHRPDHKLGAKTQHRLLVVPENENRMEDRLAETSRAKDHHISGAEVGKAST
Experimental: as §1

HPBALL = settings: read-out: IC50 (HPBALL); cytotoxicity, 24 h
Experimental: The resazurin reduction assay, which is also known as AlamarBlue® assay, was used for the determination of cell viability in all cytotoxicity determinations shown in the present work, as previously described [22]. Briefly, cells were seeded at a specific density depending on the incubation time (24 h: 1 × 10^6 cells/ml) in a 96-well plate and incubated with increasing compound concentrations (0.01–30 µM). After the specified treatment time, resazurin (Sigma, #R7017) was added to a final concentration of 40 µM. […] The viability of control cells was set to 100% and all other values were normalized to the control condition, the dose-response curves were then fitted with Prism v7.01 (GraphPad software, La Jolla, CA, USA). The reduction of resazurin to resorufin is proportional to aerobic respiration; therefore, it is used as a measure for the cell viability and cytotoxicity of a tested compound.

T3 sequence (Q02779 whole entry): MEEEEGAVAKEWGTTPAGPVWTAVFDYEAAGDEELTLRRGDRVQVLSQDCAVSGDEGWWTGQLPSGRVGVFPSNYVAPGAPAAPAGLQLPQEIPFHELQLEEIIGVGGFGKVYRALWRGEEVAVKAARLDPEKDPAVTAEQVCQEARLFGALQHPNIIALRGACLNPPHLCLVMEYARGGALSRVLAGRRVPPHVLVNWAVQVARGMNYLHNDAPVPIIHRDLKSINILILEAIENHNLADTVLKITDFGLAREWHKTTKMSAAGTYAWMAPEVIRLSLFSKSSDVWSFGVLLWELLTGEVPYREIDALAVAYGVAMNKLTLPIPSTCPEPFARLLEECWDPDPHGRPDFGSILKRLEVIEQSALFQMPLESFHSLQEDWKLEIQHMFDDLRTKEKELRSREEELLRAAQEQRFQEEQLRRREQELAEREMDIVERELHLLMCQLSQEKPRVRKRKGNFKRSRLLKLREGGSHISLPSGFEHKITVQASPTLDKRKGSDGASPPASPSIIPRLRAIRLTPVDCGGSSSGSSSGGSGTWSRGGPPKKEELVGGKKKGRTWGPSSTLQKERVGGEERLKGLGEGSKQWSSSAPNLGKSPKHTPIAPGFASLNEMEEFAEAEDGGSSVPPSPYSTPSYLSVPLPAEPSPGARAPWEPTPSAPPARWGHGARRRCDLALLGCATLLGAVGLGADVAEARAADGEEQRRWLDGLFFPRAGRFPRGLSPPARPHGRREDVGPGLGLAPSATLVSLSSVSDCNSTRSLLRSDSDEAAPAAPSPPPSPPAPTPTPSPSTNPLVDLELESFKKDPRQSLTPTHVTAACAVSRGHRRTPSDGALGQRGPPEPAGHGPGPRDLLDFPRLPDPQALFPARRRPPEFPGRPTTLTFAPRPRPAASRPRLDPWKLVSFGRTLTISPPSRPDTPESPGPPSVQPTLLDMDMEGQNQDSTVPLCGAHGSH
T2 sequence (Q13233 whole entry): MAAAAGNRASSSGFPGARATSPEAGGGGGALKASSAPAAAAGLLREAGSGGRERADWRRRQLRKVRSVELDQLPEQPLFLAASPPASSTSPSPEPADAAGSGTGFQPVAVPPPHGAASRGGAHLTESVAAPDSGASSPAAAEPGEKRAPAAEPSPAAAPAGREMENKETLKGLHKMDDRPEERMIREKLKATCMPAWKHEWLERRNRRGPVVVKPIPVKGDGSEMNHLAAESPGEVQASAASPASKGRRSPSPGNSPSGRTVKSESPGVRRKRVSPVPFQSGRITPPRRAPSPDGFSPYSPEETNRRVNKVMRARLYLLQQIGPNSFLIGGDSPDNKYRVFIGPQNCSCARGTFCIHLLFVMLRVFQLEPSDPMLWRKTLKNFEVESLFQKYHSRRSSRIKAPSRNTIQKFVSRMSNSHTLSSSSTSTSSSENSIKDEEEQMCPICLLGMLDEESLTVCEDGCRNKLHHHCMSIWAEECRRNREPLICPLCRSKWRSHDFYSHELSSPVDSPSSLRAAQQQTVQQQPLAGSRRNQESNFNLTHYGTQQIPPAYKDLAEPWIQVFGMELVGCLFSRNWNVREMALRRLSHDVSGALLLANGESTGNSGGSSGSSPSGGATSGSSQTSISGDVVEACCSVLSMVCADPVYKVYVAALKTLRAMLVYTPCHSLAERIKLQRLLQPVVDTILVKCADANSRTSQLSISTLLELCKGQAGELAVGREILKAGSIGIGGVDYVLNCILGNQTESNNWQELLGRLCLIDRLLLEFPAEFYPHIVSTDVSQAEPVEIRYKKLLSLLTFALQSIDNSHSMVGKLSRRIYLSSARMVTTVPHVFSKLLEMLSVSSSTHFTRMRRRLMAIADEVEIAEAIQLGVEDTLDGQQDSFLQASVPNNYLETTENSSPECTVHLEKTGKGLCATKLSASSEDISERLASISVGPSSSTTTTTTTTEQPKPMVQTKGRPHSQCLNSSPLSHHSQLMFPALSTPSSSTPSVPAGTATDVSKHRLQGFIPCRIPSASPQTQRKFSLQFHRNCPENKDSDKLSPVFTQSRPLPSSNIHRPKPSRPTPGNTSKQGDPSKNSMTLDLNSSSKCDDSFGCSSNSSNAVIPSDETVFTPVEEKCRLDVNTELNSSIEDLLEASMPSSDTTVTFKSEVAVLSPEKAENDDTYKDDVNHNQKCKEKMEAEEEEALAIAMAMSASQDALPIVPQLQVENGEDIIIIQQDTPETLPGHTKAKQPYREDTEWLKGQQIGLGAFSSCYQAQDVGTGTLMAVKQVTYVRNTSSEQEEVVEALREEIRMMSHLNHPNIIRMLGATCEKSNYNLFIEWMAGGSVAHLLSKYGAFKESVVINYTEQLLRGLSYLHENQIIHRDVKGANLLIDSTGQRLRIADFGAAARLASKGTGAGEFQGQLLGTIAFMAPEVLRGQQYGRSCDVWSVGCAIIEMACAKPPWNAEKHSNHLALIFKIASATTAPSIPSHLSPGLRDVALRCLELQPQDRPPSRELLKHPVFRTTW
T5 sequence (P53350 whole entry): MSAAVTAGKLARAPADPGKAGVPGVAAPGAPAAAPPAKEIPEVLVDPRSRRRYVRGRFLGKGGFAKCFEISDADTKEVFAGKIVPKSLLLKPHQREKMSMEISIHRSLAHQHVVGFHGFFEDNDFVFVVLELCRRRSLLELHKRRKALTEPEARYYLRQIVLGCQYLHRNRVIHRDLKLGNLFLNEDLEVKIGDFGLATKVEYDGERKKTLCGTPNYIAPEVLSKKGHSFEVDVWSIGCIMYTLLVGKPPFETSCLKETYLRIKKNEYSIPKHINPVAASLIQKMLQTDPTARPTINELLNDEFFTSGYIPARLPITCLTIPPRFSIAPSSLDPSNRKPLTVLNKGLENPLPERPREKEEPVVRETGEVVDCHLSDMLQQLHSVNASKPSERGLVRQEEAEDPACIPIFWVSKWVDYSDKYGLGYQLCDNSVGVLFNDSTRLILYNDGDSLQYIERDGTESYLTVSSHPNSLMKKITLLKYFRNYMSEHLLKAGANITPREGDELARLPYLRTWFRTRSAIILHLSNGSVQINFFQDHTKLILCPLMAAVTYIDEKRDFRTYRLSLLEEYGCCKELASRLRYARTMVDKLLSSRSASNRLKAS
T6 sequence (Q9H3Y6 whole entry): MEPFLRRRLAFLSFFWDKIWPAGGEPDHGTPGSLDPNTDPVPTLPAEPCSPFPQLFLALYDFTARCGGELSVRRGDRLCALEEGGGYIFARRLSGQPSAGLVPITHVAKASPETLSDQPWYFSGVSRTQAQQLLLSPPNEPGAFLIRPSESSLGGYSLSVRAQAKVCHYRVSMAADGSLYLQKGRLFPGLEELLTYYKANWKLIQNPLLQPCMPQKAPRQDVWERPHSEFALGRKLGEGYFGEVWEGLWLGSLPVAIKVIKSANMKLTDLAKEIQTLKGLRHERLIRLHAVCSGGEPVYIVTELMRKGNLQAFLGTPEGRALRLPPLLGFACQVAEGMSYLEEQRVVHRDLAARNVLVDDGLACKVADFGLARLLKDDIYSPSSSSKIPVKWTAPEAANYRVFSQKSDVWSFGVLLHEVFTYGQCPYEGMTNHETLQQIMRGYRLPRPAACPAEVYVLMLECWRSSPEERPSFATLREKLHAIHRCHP

Row | SMILES | residual kinase activity (ITK; 0.3 µM) | residual kinase activity (MAP3K1; 0.3 µM) | residual kinase activity (MAP3K10; 0.3 µM) | residual kinase activity (PKCμ; 0.3 µM) | residual kinase activity (PLK1; 0.3 µM) | residual kinase activity (SRMS; 0.3 µM) | residual kinase activity (TGFBR1; 0.3 µM) | residual kinase activity (TSK2; 0.3 µM) | IC50 (HPBALL) | other results
1 | COc1ccnc2[nH]cc(-c3cc(N)nc(N)c3)c12 [meriolin 16] | 88 % of control | 106 % of control | 76 % of control | 24 % of control | 90 % of control | 93 % of control | 67 % of control | 92 % of control | 20 nM | residual kinase activity (ITK; 0.03 µM): 105 % of control; residual kinase activity (MAP3K1; 0.03 µM): 105 % of control; residual kinase activity (MAP3K10; 0.03 µM): 99 % of control; residual kinase activity (PKCμ; 0.03 µM): 77 % of control; residual kinase activity (PLK1; 0.03 µM): 95 % of control; residual kinase activity (SRMS; 0.03 µM): 101 % of control; residual kinase activity (TGFBR1; 0.03 µM): 65 % of control; residual kinase activity (TSK2; 0.03 µM): 107 % of control
2 | c1ccc(CNc2cc(-c3c[nH]c4ncccc34)ccn2)cc1 [meriolin 36] | 77 % of control | 94 % of control | 50 % of control | 63 % of control | 100 % of control | 93 % of control | 18 % of control | 103 % of control | 3440 nM | residual kinase activity (ITK; 3 µM): 16 % of control; residual kinase activity (MAP3K1; 3 µM): 93 % of control; residual kinase activity (MAP3K10; 3 µM): 9 % of control; residual kinase activity (PKCμ; 3 µM): 23 % of control; residual kinase activity (PLK1; 3 µM): 66 % of control; residual kinase activity (SRMS; 3 µM): 73 % of control; residual kinase activity (TGFBR1; 3 µM): 0 % of control; residual kinase activity (TSK2; 3 µM): 94 % of control
